Assay [1] concerns the target Neuronal acetylcholine receptor; alpha9/alpha10 (Homo sapiens) (UniProt Q9UGM1+Q9GZZ6). Description: Antagonist activity at alpha9/alpha10 nAChR expressed in Xenopus oocyte assessed as inhibition of ACh-gated current response at 100 nM by voltage clamp electrophysiology assay. The format is functional. Also on record: scale not given: the % may be the effect or the level left.

Assay [2] addresses Neuronal acetylcholine receptor subunit alpha-7 (Homo sapiens, UniProt P36544). The assay is described as follows: Antagonist activity at alpha7 nAChR expressed in Xenopus oocyte assessed as inhibition of ACh-gated current by voltage clamp electrophysiology assay. The format is functional.
Assay [3] concerns the target Neuronal acetylcholine receptor; alpha9/alpha10 (Homo sapiens, UniProt Q9GZZ6+Q9UGM1). The assay is described as follows: Antagonist activity at alpha9/alpha10 nAChR expressed in Xenopus oocyte assessed as inhibition of ACh-gated current by voltage clamp electrophysiology assay. Type of assay: functional.
Assay [4] is filed under the species Rattus norvegicus. Description: Analgesic activity in rat inflammatory pain model assessed reduction formalin-induced inflammatory pain. The format is functional, organism-based.
The species named for assay [5] is Rattus norvegicus. The assay is described as follows: Analgesic activity in rat pain model by tail flick test. The format is functional, organism-based. In general terms: Thermal pain tests record how soon the animal reacts.
The species named for assay [6] is Rattus norvegicus. The assay is described as follows: Analgesic activity in rat chronic constriction nerve injury model of neuropathic pain assessed as reversal of mechanical hyperalgesia. The format is functional, organism-based.
Assay [7] concerns Rattus norvegicus. The assay is described as follows: Analgesic activity in rat chronic constriction nerve injury model of neuropathic pain assessed as reversal of mechanical hyperalgesia measured after repeated dosing for 7 days. The format is functional, organism-based.
In assay [8] the target is Neuronal acetylcholine receptor; alpha4/beta2 (Homo sapiens, UniProt P17787+P43681). Description: Inhibition of alpha4beta2 nAChR. Type of assay: protein-complex assay.
Neuronal acetylcholine receptor; alpha4/beta2, sequence (P17787 whole entry): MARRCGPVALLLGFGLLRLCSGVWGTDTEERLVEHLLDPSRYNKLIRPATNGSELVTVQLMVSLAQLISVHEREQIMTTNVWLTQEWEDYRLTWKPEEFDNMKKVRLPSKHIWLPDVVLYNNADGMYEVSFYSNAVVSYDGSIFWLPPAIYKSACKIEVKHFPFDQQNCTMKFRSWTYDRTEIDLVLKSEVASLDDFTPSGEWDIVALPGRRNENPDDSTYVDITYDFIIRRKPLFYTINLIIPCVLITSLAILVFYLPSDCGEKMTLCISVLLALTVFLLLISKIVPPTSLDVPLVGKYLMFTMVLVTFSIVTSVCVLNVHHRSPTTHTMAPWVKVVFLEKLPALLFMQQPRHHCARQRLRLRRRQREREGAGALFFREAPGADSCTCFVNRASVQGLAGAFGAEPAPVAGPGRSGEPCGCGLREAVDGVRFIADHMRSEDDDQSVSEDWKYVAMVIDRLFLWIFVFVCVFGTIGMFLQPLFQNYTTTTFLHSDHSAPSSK
Neuronal acetylcholine receptor; alpha4/beta2, sequence (P43681 whole entry): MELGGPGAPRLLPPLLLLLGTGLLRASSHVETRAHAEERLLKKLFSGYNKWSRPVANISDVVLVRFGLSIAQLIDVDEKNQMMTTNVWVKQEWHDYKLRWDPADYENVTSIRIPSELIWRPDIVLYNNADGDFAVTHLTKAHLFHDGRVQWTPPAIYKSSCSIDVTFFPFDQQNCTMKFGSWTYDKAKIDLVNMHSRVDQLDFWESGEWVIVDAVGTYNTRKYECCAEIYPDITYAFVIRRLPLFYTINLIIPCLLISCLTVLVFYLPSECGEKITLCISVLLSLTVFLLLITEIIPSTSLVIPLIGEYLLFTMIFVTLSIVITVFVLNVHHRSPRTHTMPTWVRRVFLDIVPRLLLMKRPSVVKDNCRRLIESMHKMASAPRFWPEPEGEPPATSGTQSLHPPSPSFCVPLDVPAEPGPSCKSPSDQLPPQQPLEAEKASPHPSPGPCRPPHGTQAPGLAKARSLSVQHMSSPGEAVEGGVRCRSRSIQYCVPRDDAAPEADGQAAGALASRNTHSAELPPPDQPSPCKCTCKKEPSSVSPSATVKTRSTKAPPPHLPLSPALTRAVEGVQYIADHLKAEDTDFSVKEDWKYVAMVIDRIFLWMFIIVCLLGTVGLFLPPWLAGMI
The target of assay [9] is Neuronal acetylcholine receptor; alpha3/beta4 (Homo sapiens, UniProt P30926+P32297). The assay is described as follows: Inhibition of alpha3beta4 nAChR. Type of assay: protein-complex assay.
Neuronal acetylcholine receptor; alpha3/beta4, sequence (P30926 whole entry): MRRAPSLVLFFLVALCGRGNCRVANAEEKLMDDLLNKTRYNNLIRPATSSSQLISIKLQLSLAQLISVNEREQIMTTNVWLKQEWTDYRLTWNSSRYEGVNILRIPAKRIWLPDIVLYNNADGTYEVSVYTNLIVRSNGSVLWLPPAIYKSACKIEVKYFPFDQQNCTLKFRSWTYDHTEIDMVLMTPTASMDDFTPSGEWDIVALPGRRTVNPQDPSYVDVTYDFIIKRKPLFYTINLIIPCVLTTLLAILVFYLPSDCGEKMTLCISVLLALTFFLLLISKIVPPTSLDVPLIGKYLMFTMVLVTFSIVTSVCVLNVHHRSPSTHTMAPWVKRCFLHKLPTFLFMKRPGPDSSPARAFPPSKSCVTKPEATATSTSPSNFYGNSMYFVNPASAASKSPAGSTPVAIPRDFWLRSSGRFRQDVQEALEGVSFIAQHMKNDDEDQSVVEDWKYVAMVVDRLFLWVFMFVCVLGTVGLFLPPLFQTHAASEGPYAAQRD
Neuronal acetylcholine receptor; alpha3/beta4, sequence (P32297 whole entry): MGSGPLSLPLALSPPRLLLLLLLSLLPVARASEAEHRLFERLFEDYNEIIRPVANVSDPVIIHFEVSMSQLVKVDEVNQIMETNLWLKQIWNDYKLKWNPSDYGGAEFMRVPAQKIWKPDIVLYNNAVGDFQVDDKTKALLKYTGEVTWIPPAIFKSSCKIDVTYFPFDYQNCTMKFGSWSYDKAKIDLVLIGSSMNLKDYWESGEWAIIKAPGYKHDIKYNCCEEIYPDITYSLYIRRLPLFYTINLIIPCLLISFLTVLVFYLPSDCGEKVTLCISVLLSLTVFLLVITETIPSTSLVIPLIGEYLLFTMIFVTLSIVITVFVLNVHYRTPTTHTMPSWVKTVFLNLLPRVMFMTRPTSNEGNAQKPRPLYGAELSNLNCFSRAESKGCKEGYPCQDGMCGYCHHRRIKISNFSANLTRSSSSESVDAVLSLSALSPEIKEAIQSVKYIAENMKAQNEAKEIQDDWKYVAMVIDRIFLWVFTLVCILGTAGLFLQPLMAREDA
Assay [10] in a line: Inhibition of muscle nAChR. Type of assay: tissue-based, Muscle tissue.

The source made the active and inactive calls. No cut-off for these calls is given here.

For 40 molecules, Activity and IC50 results are on record in ChEMBL document CHEMBL1759897, “Discovery of non-peptide, small molecule antagonists of α9α10 nicotinic acetylcholine receptors as novel analgesics for the treatment of neuropathic and tonic inflammatory pain” (Bioorg Med Chem Lett, 2011).

Neuronal acetylcholine receptor subunit alpha-7, sequence (P36544 whole entry): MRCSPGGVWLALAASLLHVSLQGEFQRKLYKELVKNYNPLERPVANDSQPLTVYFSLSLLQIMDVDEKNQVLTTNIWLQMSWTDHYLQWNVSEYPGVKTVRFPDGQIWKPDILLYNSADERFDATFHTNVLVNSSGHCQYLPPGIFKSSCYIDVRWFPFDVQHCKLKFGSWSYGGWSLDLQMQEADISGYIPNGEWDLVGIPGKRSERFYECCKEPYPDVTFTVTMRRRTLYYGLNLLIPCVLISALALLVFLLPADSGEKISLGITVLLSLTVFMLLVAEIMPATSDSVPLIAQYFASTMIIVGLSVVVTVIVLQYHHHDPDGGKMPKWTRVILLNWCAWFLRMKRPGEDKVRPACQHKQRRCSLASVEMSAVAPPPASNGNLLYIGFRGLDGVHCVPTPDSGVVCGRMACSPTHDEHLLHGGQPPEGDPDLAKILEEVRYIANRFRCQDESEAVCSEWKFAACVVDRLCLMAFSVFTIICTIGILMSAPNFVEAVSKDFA
Neuronal acetylcholine receptor; alpha9/alpha10, sequence (Q9UGM1 whole entry): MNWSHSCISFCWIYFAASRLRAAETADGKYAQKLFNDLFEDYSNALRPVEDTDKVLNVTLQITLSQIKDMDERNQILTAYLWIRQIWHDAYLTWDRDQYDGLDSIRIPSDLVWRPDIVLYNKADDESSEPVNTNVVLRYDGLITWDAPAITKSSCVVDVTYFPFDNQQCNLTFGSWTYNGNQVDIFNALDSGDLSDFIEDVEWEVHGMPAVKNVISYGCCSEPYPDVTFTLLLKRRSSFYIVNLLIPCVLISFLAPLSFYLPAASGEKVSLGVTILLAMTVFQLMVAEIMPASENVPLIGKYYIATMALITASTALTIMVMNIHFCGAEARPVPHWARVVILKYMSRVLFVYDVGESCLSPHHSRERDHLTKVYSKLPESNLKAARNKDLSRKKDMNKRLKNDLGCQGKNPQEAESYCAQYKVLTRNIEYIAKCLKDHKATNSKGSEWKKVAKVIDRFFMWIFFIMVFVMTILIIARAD
Neuronal acetylcholine receptor; alpha9/alpha10, sequence (Q9GZZ6 whole entry): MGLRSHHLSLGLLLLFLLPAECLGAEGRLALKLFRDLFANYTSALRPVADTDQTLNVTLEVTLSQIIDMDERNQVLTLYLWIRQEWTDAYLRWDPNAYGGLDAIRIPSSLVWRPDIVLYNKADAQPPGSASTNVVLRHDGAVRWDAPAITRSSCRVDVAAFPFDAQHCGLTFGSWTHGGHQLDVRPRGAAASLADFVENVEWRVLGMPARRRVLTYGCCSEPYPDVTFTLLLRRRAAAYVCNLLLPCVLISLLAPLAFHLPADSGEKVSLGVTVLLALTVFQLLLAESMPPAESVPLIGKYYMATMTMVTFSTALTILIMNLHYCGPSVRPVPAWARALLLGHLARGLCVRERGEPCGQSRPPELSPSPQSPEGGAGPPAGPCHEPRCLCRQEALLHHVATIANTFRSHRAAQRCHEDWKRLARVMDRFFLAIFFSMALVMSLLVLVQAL

Consider `CCCCc1ccc[n+](CCCCCc2cc(CCCCC[n+]3cccc(CCCC)c3)cc(CCCCC[n+]3cccc(CCCC)c3)c2)c1`, for which the Activity in [1] was found to be 16.1%.

Regarding `C(#Cc1cccc(C#CCCC[n+]2cccc3ccccc32)c1)CCC[n+]1cccc2ccccc21`, the Activity in [1] turned out to be 41.6%.

In the case of `Cc1cc[n+](CCCC#Cc2cc(C#CCCC[n+]3ccc(C)c(C)c3)c(C#CCCC[n+]3ccc(C)c(C)c3)cc2C#CCCC[n+]2ccc(C)c(C)c2)cc1C`, the Activity in assay [1] amounted to 47.4%.

In the case of `c1ccc(-c2ccc[n+](CCCCCc3cc(CCCCC[n+]4cccc(-c5ccccc5)c4)cc(CCCCC[n+]4cccc(-c5ccccc5)c4)c3)c2)cc1`, in assay [1], the Activity stood at 3.84%.

Turning to `Cc1cc[n+](CCCCc2ccc(CCCC[n+]3ccc(C)c(C)c3)cc2)cc1C`, the Activity in assay [1] is 36.7%.

For orientation: IC50 means the midpoint of a concentration-inhibition curve. For `c1ccc(-c2ccc[n+](CCCCCc3cc(CCCCC[n+]4cccc(-c5ccccc5)c4)c(CCCCC[n+]4cccc(-c5ccccc5)c4)cc3CCCCC[n+]3cccc(-c4ccccc4)c3)c2)cc1`, the IC50 is 0.099 µM in [2] and 0.0054 µM in assay [3]. The Activity in assay [1] was 6.5%.

Take `Cc1cc[n+](CCCCCc2cc(CCCCC[n+]3ccc(C)c(C)c3)cc(CCCCC[n+]3ccc(C)c(C)c3)c2)cc1C`: the Activity in [1] was determined as 62.7%.

Regarding `C(#Cc1cc(C#CCCC[n+]2cccc(-c3ccccc3)c2)cc(C#CCCC[n+]2cccc(-c3ccccc3)c2)c1)CCC[n+]1cccc(-c2ccccc2)c1`, the Activity in [1] was 5.5%.

Take `C(#Cc1cc(C#CCCC[n+]2ccc3ccccc3c2)c(C#CCCC[n+]2ccc3ccccc3c2)cc1C#CCCC[n+]1ccc2ccccc2c1)CCC[n+]1ccc2ccccc2c1`: the Activity in assay [1] stood at 11.6%.

Regarding `Cc1cc[n+](CCCCCc2ccccc2CCCCC[n+]2ccc(C)c(C)c2)cc1C`, the Activity in assay [1] was found to be 72%.

With `Cc1cc[n+](CCCCCc2cc(CCCCC[n+]3ccc(C)c(C)c3)c(CCCCC[n+]3ccc(C)c(C)c3)cc2CCCCC[n+]2ccc(C)c(C)c2)cc1C`, the Activity in assay [1] was determined as 11%.

For `c1cc(CCCCC[n+]2ccc3ccccc3c2)cc(CCCCC[n+]2ccc3ccccc3c2)c1`, the Activity in assay [1] came out at 37.5%.

Take `Cc1cc(C)c[n+](CCC#Cc2ccc(C#CCC[n+]3cc(C)cc(C)c3)cc2)c1`: in [1], the Activity worked out at 76.2%.

As to `Cc1cc(C)c[n+](CCCc2ccc(-c3ccc(CCC[n+]4cc(C)cc(C)c4)cc3)cc2)c1`, the Activity in assay [1] came out at 114%.

As to `Cc1cc(C)c[n+](CCCC#Cc2cc(C#CCCC[n+]3cc(C)cc(C)c3)c(C#CCCC[n+]3cc(C)cc(C)c3)cc2C#CCCC[n+]2cc(C)cc(C)c2)c1`, the Activity in assay [1] was found to be 0.3%.

As to `Cc1cc(C)c[n+](CCCCCc2cc(CCCCC[n+]3cc(C)cc(C)c3)cc(CCCCC[n+]3cc(C)cc(C)c3)c2)c1`, in assay [1], the Activity turned out to be 79.8%.

With `C(#Cc1ccccc1C#CCCC[n+]1ccc2ccccc2c1)CCC[n+]1ccc2ccccc2c1`, the Activity in assay [1] was determined as 28%.

Consider `Cc1cc[n+](CCCC#Cc2ccccc2C#CCCC[n+]2ccc(C)c(C)c2)cc1C`, for which the Activity in assay [1] turned out to be 31.3%.

As for `Cc1cc[n+](CCCc2ccc(-c3ccc(CCC[n+]4ccc(C)c(C)c4)cc3)cc2)cc1C`, the Activity in assay [1] was determined as 89.3%.

As for `C(#Cc1cccc(C#CCCC[n+]2ccc3ccccc3c2)c1)CCC[n+]1ccc2ccccc2c1`, the Activity in [1] stood at 39.7%.

On to `c1cc(CCCCC[n+]2cccc3ccccc32)cc(CCCCC[n+]2cccc3ccccc32)c1`, for which, in [1], the Activity is 42.6%.

Take `Cc1cc(C)c[n+](CCCC#Cc2ccccc2C#CCCC[n+]2cc(C)cc(C)c2)c1`: the Activity in assay [1] was determined as 67.6%.

Turning to `Cc1cc(C)c[n+](CCCCCc2ccccc2CCCCC[n+]2cc(C)cc(C)c2)c1`, the Activity in assay [1] is 124%.

Regarding `Cc1cc[n+](CC#Cc2ccc(-c3ccc(C#CC[n+]4ccc(C)c(C)c4)cc3)cc2)cc1C`, the IC50 came to 1.19 µM in assay [2] and 0.016 µM in assay [3]. Also, the outcome in the assay listed under Rattus norvegicus [4] was Active. In addition, the outcome in the assay filed under Rattus norvegicus [5] and in the assay with Rattus norvegicus [7] was inactive. Further, the Activity entry in the assay listed under Rattus norvegicus [6] was “Dose-dependent effect”; in assay [1], 8.1%.

As to `Cc1cc(C)c[n+](CCCCCc2cc(CCCCC[n+]3cc(C)cc(C)c3)c(CCCCC[n+]3cc(C)cc(C)c3)cc2CCCCC[n+]2cc(C)cc(C)c2)c1`, the Activity in assay [1] amounted to 0.6%.

For the molecule `C(#Cc1cc(C#CCCC[n+]2cccc3ccccc32)cc(C#CCCC[n+]2cccc3ccccc32)c1)CCC[n+]1cccc2ccccc21`, in assay [1], the Activity was 10.5%.

For `c1ccc(CCCCC[n+]2cccc3ccccc32)c(CCCCC[n+]2cccc3ccccc32)c1`, in assay [1], the Activity amounted to 10.9%.

Consider `C(#Cc1cc(C#CCCC[n+]2cccc(-c3ccccc3)c2)c(C#CCCC[n+]2cccc(-c3ccccc3)c2)cc1C#CCCC[n+]1cccc(-c2ccccc2)c1)CCC[n+]1cccc(-c2ccccc2)c1`, for which the IC50 stood at 3.8 µM in assay [8], 0.8 µM in [9] and 0.12 µM in [10]. Also, in the assay filed under Rattus norvegicus [4], the result was Active. For the same molecule, the outcome in the assay listed under Rattus norvegicus [5] and in the assay with Rattus norvegicus [7] was inactive. Further, the Activity entry is “Dose-dependent effect” in the assay filed under Rattus norvegicus [6] and 0.3% in assay [1].

Take `CCCCc1ccc[n+](CCCC#Cc2cc(C#CCCC[n+]3cccc(CCCC)c3)cc(C#CCCC[n+]3cccc(CCCC)c3)c2)c1`: the Activity in [1] was found to be 36.1%.

As for `Cc1cc(C)c[n+](CCCC#Cc2cc(C#CCCC[n+]3cc(C)cc(C)c3)cc(C#CCCC[n+]3cc(C)cc(C)c3)c2)c1`, the Activity in assay [1] was 66%.

On to `c1ccc(CCCCC[n+]2ccc3ccccc3c2)c(CCCCC[n+]2ccc3ccccc3c2)c1`, for which the Activity in assay [1] worked out at 31.1%.

Regarding `c1ccc2c[n+](CCCCCc3cc(CCCCC[n+]4ccc5ccccc5c4)c(CCCCC[n+]4ccc5ccccc5c4)cc3CCCCC[n+]3ccc4ccccc4c3)ccc2c1`, the Activity in assay [1] was 17.9%.

On to `Cc1cc[n+](CCCC#Cc2cccc(C#CCCC[n+]3ccc(C)c(C)c3)c2)cc1C`, for which the Activity in assay [1] came to 76.9%.

As to `Cc1cc[n+](CCC#Cc2ccc(C#CCC[n+]3ccc(C)c(C)c3)cc2)cc1C`, the Activity in [1] is 10.6%.

On to `Cc1cc[n+](CCCC#Cc2cc(C#CCCC[n+]3ccc(C)c(C)c3)cc(C#CCCC[n+]3ccc(C)c(C)c3)c2)cc1C`, for which the Activity in [1] stood at 61.1%.

For the molecule `Cc1cc(C)c[n+](CCCCc2ccc(CCCC[n+]3cc(C)cc(C)c3)cc2)c1`, in assay [1], the Activity stood at 97.1%.

Turning to `C(#Cc1cccc(C#CCCC[n+]2cccc(-c3ccccc3)c2)c1)CCC[n+]1cccc(-c2ccccc2)c1`, the Activity in assay [1] worked out at 23.2%.

As for `Cc1cc[n+](CCCCCc2cccc(CCCCC[n+]3ccc(C)c(C)c3)c2)cc1C`, the Activity in assay [1] is 62.7%.

Consider `c1ccc2c(c1)ccc[n+]2CCCCCc1cc(CCCCC[n+]2cccc3ccccc32)cc(CCCCC[n+]2cccc3ccccc32)c1`, for which the outcome in the assay filed under Rattus norvegicus [4] was Active. In addition, the outcome in the assay filed under Rattus norvegicus [5] and in the assay on Rattus norvegicus [7] was inactive. The Activity entry was “Dose-dependent effect” in the assay filed under Rattus norvegicus [6] and 15.9% in [1].

With `c1ccc2c[n+](CCCCCc3cc(CCCCC[n+]4ccc5ccccc5c4)cc(CCCCC[n+]4ccc5ccccc5c4)c3)ccc2c1`, in assay [1], the Activity came out at 6.9%.
